From publication PMC1764757 (BMC Cancer, 2006)
One block for each compound: values may come before it.

Assays:
[1] = human, in vivo, iv, 600 mg/m^2, 1 h
Description: (§1) Blood samples were taken following drug administration and the plasma extracted immediately and stored. Blood samples for determination of Cilengitide were collected at the following time points: day 1 immediately before Cilengitide infusion and after 1 h (end of infusion); day 8 immediately before Cilengitide infusion and after 1 h (end of infusion) and 0.5 h, 1 h, 2 h, 3 h, 4 h, 7 h, and 11 h after end of Cilengitide infusion. Blood samples for gemcitabine analysis were collected in both treatment arms on day 1 and day 8 at the following time points: 0 h (immediately before start of infusion of gemcitabine), 0.5 h (at the end of infusion of gemcitabine) and 0.5 h, 1.5 h, 2.5 h, and 3.5 h after end of gemcitabine infusion.
(§2) Analysis was carried out at a single laboratory using high-performance liquid chromatography-tandem mass spectrometry. Calculation of pharmacokinetic parameters was performed according to non-compartmental standard methods. Pharmacokinetic analyses included maximum plasma concentration (Cmax), time to maximum concentration (tmax), area under the curve from time zero to the last sampling time (AUC0-t), area under the curve from time zero to infinity (AUC0-∝), apparent elimination rate constant (λz), apparent terminal elimination half-life associated with the negative terminal slope (t1/2), total body clearance of drug from plasma (CL) and the volume of distribution at steady state (Vss). The lower limits of quantification for Cilengitide and gemcitabine in plasma were 1 ng/mL and 50 ng/mL, respectively. For the plasma quality control samples of Cilengitide the interbatch coefficient of variation (CV) was 3.4% to 9.2% and the interbatch accuracy was 97% to 104%. For the plasma quality control samples of gemcitabine, the interbatch CV was 5.6% to 9.4% and the interbatch accuracy was 93.5% to 104%.

[2] = system: patients with advanced solid tumors; conditions: in vivo; cited from earlier work
clinical = conditions: human, in vivo, iv
Description: as §1, §2

[3] = ancillary pharmacokinetic study, plasma, HPLC-MS/MS; conditions: for Tmax: human, iv
Description: as §1, §2

[4] = system: patients with advanced unresectable pancreatic cancer; assay: randomized phase II trial: survival, PFS and tumor response; format: in vivo, human
Source text: Patients with advanced unresectable pancreatic cancer were enrolled. Eligibility criteria included age ≥ 18 years, diagnosed (histologically or cytologically) with or without metastases, at least one bidimensionally measurable lesion, a Karnofsky performance score of ≥ 70%, a life expectancy of at least 12 weeks, and written informed consent. The main exclusion criteria were prior chemotherapy and/or major surgery related to pancreatic cancer before study entry with the exception of palliative surgery, brain metastases, a pancreatic tumor of neuroendocrine origin, second primary malignancies, inadequate liver and renal functions, inadequate bone marrow reserve, a history of cerebrovascular accident or repeated transient ischemic attacks and cardiac or cardiovascular abnormality.
This was a multi-national, open-label, controlled, randomized, parallel-group, phase II pilot study, conducted in 20 centers in 7 countries (Austria, Belgium, France, Germany, Spain, Switzerland, and the United Kingdom). Eligible patients were randomized to receive either Cilengitide and gemcitabine or gemcitabine alone. The Pocock minimization method [23] was applied for randomization using factors for center and for locally advanced or metastatic disease following the definition according to the tumor-node-metastasis (TNM) classification and histopathological grading system of the International Union Against Cancer. Cilengitide (600 mg/m^2) was administered twice weekly as a 1 hour intravenous (IV) infusion for 4 consecutive weeks (1 cycle). Gemcitabine (1000 mg/m^2) was administered as a weekly 30-minute IV infusion once weekly for 3 weeks followed by 1 week of rest (1 cycle). In the drug combination group, on the days on which both drugs were given, Cilengitide was given immediately prior to gemcitabine. The planned treatment period was 24 weeks (6 cycles), but patients responding to either regimen could continue treatment up to a maximum of 48 weeks.
Overall survival was defined as the time from the start of study drug administration to death. PFS was defined as the time interval between the date of randomization and the date of disease progression or death whichever came first. If neither was observed the patient was censored at the date of the last follow-up examination. A computed tomography or magnetic resonance imaging scan of target lesions was performed at baseline, weeks 9 and 17, and at the end of treatment to assess tumor size and treatment response. Unscheduled scans were conducted to confirm disease progression. Tumor response was assessed according to the amended World Health Organization (WHO) criteria for response based on the size of target lesions.
The sample size of the trial was determined by clinical feasibility. No inferential statistical comparison of the two treatment arms was planned. The aim was to obtain information on safety and feasibility as well as trends in efficacy by determination of overall survival as primary and progression-free survival (PFS), response rate, quality of life (QoL), effects on biological markers of disease (CA 19.9) and angiogenesis (vascular endothelial growth factor and basic fibroblast growth factor) and safety as secondary endpoints. Confidence intervals were presented at the 95%-confidence level. The data of this phase II pilot- and feasibility study, are presented in a descriptive manner. The primary analysis of survival (time to death from any cause) was conducted using the intention-to-treat (ITT) population. An additional supportive analysis using the Per Protocol (PP) population was conducted. The secondary objectives were to determine PFS, response rates, safety and tolerability, QoL, biological response, and pharmacokinetics.

[5] = system: patients with advanced unresectable pancreatic cancer; assay: randomized phase II trial: quality of life (EORTC QLQ-C30); format: in vivo, human; conditions: QLQ-C30, change from baseline
Description: Quality of life (QoL) was assessed using the European Organization for Research and Treatment of Cancer (EORTC) QoL core questionnaire (QLQ-C30, Version 3.0) in conjunction with the EORTC Pancreatic Module ([…] is a self-administered 30-item questionnaire and incorporates 5 functional scales, 3 symptom scales and a global health/QoL scale. EORTC-PAN26 is a 26-item questionnaire addressing pancreas cancer specific symptoms and the side effects from conventional therapy. Assessments were made at weeks 1, 9, 17, 25 and at the end of treatment. QoL data were analyzed descriptively due to the small number of patients enrolled in the study.

[6] = system: patients with advanced unresectable pancreatic cancer; assay: randomized phase II trial: safety, adverse events (NCI-CTC); format: in vivo, human
Source text: This was a multi-national, open-label, controlled, randomized, parallel-group, phase II pilot study, conducted in 20 centers in 7 countries (Austria, Belgium, France, Germany, Spain, Switzerland, and the United Kingdom). Eligible patients were randomized to receive either Cilengitide and gemcitabine or gemcitabine alone. The Pocock minimization method was applied for randomization using factors for center and for locally advanced or metastatic disease following the definition according to the tumor-node-metastasis (TNM) classification and histopathological grading system of the International Union Against Cancer. Cilengitide (600 mg/m^2) was administered twice weekly as a 1 hour intravenous (IV) infusion for 4 consecutive weeks (1 cycle). Gemcitabine (1000 mg/m^2) was administered as a weekly 30-minute IV infusion once weekly for 3 weeks followed by 1 week of rest (1 cycle). In the drug combination group, on the days on which both drugs were given, Cilengitide was given immediately prior to gemcitabine. The planned treatment period was 24 weeks (6 cycles), but patients responding to either regimen could continue treatment up to a maximum of 48 weeks. […] Any change was based on patient hematological and/or non-hematological parameters on the intended day of treatment as well as the maximum drug-induced toxicity grade observed between dosing. The before treatment and 4-weekly evaluations included a physical examination and laboratory investigations (blood counts, biochemical profile, urinalysis). Assessments were also made of Karnofsky performance status and vital signs. Before the start of the study, at the end of the study and when clinically indicated during the study chest X-rays and 12-lead electrocardiograms were performed. Adverse events were monitored and evaluated for frequency, duration, severity (mild, moderate, severe, life-threatening) and possible relationship to study medication. Toxicity was assessed according to NCI-CTC Version 2. All adverse events whether reported by a patient or observed by an investigator or study nurse were documented, regardless of whether they were considered to be drug-related, together with any medical intervention.

[7] = system: patients with advanced pancreatic cancer; conditions: cited from earlier work
[8] = Cilengitide 600 mg/m^2 1 h IV infusion with gemcitabine, plasma, n 10
[9] = WHO criteria, ITT, listed as gemcitabine alone
[10] = all adverse events during the treatment period
[11] = onset during the treatment phase
[12] = possibly related to treatment, listed as gemcitabine alone
[13] = in combination with gemcitabine

mean concentration at the end of infusion [1]: 62.182 ± 12.345 µg/mL
level at 1 h (clinical; 600 mg/m^2, mean concentration at the end of infusion): 75.4 ± 31.5 µg/mL
half-life (clinical; t1/2, Geomean): ~3 h
CL, Geomean [3, 8]: 54.2 mL/min/m^2
Vss, Geomean [3, 8]: 12100 mL/m^2
Tmax ([3]; plasma): 1 h
Compound: CC(C)[C@H]1C(=O)N[C@@H](CCCN=C(N)N)C(=O)NCC(=O)N[C@@H](CC(=O)O)C(=O)N[C@H](Cc2ccccc2)C(=O)N1C [Cilengitide, Cyclo-l-Arg-l-Asp-d-Phe-N (Me) l-Val]
dose limiting toxicity [2]: no dose limiting toxicity was recorded

Compound: Nc1ccn([C@@H]2O[C@H](CO)[C@@H](O)C2(F)F)c(=O)n1 [Gemcitabine, gemcitabine]
1-year survival (95% CI) ([4]; ITT population): 0.24 (0.11–0.37)
Median PFS (95% CI) ([4]; ITT population): 115 (62–178) days
Median survival (95% CI) ([4]; ITT population): 234 (137–290) days
Number of deaths ([4]; ITT population): 37
median PFS time ([4]; ITT population): 3.8 months
median overall survival ([4]; ITT population): 7.7 months
Complete response, % of patients ([4]; WHO criteria, ITT): 2%
Complete response, No. patients ([4]; WHO criteria, ITT): 1
Partial response, % of patients ([4]; WHO criteria, ITT): 12%
Partial response, No. patients ([4]; WHO criteria, ITT): 5
Progressive disease, % of patients ([4]; WHO criteria, ITT): 23%
Progressive disease, No. patients ([4]; WHO criteria, ITT): 10
Response rate, % of patients ([4]; WHO criteria, ITT): 14%
Response rate, No. patients ([4]; WHO criteria, ITT): 6
Stable disease, % of patients ([4]; WHO criteria, ITT): 42%
Stable disease, No. patients ([4]; WHO criteria, ITT): 18
Tumor growth control rate, % of patients ([4]; WHO criteria, ITT): 56%
Tumor growth control, No. patients ([4]; WHO criteria, ITT): 24
Response rate, % of patients [4, 9]: 14%
Tumor growth control rate, % of patients [4, 9]: 56%
patients reporting an improved global health status ([5]; week 9): 50%
patients reporting an improved global health status ([5]; week 17): 47%
Condition reduced, number of events ([6]; SAE, Grade 3, relationship not assessable, considered possibly related): 1
Gamma-glutamyl transferase elevations (% of patients) [6, 10]: 29%
Nausea (% of patients) [6, 10]: 50%
Shivering (% of patients) [6, 10]: 7%
ascites (% of patients) [6, 10]: 26%
cholestasis (% of patients) [6, 10]: 26%
dyspepsia (% of patients) [6, 10]: 29%
dyspnea (% of patients) [6, 10]: 14%
fever (% of patients) [6, 10]: 24%
jaundice (% of patients) [6, 10]: 19%
urinary tract infection (% of patients) [6, 10]: 21%
number of possibly related serious adverse events ([6]; in vivo): 8
patients with possibly related adverse events, % ([6]; in vivo): 76%
patients with possibly related adverse events, number ([6]; in vivo): 32
total number of possibly related adverse events ([6]; in vivo): 278
AE, Grade 1/2, No. of events [6, 11]: 617
AE, Grade 1/2, Pts (%) [6, 11]: 17%
AE, Grade 3/4, No. of events [6, 11]: 138
AE, Grade 3/4, Pts (%) [6, 11]: 83%
AE, all grades, No. of events [6, 11]: 755
AE, all grades, Pts (%) [6, 11]: 100%
SAE, all, No. of events [6, 11]: 64
SAE, all, Pts (%) [6, 11]: 71%
SAE, all, Pts (%) ([6]; onset during the treatment phase, listed as gemcitabine alone): 71%
Epistaxis, number of events ([6]; possibly related SAE, Grade 2): 1
Exanthema, number of events ([6]; possibly related SAE, Grade 2): 1
Pneumonia, number of events ([6]; possibly related SAE, Grade 2): 1
Anorexia, number of events ([6]; possibly related SAE, Grade 3): 1
Depression, number of events ([6]; possibly related SAE, Grade 3): 1
Dyspnea, number of events ([6]; possibly related SAE, Grade 3): 2
Anemia (% of patients) ([6]; possibly related to treatment): 26%
Anorexia (% of patients) ([6]; possibly related to treatment): 14%
Asthenia (% of patients) ([6]; possibly related to treatment): 10%
Edema (% of patients) ([6]; possibly related to treatment): 5%
Fatigue (% of patients) ([6]; possibly related to treatment): 19%
Hair changes (% of patients) ([6]; possibly related to treatment): 12%
Headache (% of patients) ([6]; possibly related to treatment): 0%
Leukopenia (% of patients) ([6]; possibly related to treatment): 26%
Nausea (% of patients) ([6]; possibly related to treatment): 38%
Peripheral edema (% of patients) ([6]; possibly related to treatment): 5%
Shivering (% of patients) ([6]; possibly related to treatment): 2%
Sweating increased (% of patients) ([6]; possibly related to treatment): 2%
Thrombocytopenia (% of patients) ([6]; possibly related to treatment): 33%
Vomiting (% of patients) ([6]; possibly related to treatment): 26%
dyspepsia (% of patients) ([6]; possibly related to treatment): 7%
fever (% of patients) ([6]; possibly related to treatment): 10%
Leukopenia (% of patients) [6, 12]: 26%
Shivering (% of patients) [6, 12]: 2%
median maximum plasma concentration ([3]; gemcitabine alone group, Week 1, n = 5): 10600 ng/mL
median maximum plasma concentration ([3]; gemcitabine alone group, Week 2, n = 5): 6060 ng/mL
median maximum plasma concentration ([3]; gemcitabine in the Cilengitide and gemcitabine group, Week 1, n = 12): 6960 ng/mL
median maximum plasma concentration ([3]; gemcitabine in the Cilengitide and gemcitabine group, Week 2, n = 11): 7490 ng/mL
Tmax ([3]; plasma, 1000 mg/m^2): 0.5 h
median survival time ([7]; gemcitabine alone): 5.7 months

Compound: bevacizumab: anti-VEGF-agent, given in combination with gemcitabine
median overall survival time [7, 13]: 8,8 months
response rate [7, 13]: 21%
